The text below walks through data of ChEMBL document CHEMBL5614398, “A comprehensive review of new small molecule drugs approved by the FDA in 2022: Advance and prospect” (Eur J Med Chem, 2024).

Structures are written as SMILES.

Data set [1] in a line: Half life in human. In kind it is ADME.
The nature of data set [2]: Activation of Myosin ATPase activity in bovine Cardio-myofibril. Also on record: species or system Bos taurus.
In data set [3] the target is Structural capsid protein (Human immunodeficiency virus 1, UniProt Q76129). In words: Inhibition of HIV-1 NL4-3 monomeric capsid protein.
Chain of Structural capsid protein (Q76129 whole entry): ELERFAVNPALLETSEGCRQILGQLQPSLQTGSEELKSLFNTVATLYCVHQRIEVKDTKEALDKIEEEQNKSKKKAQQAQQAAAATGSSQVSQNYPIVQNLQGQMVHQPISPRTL
Data set [4] deals with Tyrosine-protein kinase JAK2 (Homo sapiens, UniProt O60674). In words: Inhibition of N-terminal human recombinant JAK2 using poly(Glu,Ala,Tyr) as substrate incubated for 2 hrs in presence of ATP by luminescence method.
Chain of Tyrosine-protein kinase JAK2 (O60674 whole entry): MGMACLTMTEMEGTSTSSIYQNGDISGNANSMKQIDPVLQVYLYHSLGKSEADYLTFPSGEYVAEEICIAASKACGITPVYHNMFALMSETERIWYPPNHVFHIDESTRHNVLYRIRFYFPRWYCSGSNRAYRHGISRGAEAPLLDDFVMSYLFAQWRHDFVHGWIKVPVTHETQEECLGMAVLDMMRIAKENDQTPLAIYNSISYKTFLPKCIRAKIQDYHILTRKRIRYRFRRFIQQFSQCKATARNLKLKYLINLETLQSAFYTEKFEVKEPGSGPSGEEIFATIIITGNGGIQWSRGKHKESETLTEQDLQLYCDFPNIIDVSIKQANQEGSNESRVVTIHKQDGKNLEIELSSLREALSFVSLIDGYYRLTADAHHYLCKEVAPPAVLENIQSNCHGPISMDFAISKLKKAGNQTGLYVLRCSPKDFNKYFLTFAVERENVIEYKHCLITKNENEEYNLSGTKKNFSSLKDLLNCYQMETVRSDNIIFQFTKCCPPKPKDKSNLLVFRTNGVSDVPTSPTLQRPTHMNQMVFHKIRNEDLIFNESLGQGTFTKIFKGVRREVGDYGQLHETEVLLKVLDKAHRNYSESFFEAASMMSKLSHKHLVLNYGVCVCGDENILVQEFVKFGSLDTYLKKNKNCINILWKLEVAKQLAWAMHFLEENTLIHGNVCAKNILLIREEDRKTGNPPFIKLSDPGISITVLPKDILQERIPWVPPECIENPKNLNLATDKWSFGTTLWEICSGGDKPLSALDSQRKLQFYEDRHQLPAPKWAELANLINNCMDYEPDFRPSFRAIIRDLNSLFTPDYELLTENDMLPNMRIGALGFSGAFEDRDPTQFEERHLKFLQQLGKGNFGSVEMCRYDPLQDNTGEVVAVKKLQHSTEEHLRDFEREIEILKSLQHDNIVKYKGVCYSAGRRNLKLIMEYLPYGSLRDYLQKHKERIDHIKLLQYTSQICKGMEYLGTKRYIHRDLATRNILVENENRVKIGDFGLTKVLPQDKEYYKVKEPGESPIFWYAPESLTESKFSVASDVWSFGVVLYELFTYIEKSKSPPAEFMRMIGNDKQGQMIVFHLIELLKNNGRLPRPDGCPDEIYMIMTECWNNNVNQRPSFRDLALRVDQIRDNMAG
Data set [5] addresses T1, Receptor-type tyrosine-protein kinase FLT3 (Homo sapiens, UniProt P36888).
T1 sequence (P36888 whole entry): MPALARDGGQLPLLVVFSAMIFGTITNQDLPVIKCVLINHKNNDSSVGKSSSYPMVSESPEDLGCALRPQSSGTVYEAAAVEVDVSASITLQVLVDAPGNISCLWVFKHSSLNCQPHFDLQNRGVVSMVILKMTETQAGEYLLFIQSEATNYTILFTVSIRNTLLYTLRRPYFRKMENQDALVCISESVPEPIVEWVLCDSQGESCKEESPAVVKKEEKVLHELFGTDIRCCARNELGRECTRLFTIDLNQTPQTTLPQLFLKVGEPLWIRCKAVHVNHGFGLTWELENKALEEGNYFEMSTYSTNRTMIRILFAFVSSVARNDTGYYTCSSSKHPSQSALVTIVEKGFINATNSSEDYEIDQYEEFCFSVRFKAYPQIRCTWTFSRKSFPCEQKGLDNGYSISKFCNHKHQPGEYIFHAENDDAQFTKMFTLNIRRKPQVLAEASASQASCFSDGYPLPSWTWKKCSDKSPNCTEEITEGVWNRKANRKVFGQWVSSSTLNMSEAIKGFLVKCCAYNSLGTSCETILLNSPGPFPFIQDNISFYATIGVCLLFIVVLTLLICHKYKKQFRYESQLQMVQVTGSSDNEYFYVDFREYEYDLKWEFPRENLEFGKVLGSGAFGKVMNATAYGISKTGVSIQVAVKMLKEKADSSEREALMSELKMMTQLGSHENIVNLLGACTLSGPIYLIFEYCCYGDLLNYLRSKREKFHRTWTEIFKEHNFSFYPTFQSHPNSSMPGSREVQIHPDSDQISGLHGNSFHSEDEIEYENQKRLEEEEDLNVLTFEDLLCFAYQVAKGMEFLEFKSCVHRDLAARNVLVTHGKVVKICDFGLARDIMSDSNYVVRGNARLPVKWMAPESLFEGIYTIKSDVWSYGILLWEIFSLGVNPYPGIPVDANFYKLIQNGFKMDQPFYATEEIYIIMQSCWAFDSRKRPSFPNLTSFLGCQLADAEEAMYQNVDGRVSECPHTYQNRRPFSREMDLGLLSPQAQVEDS
In words: Inhibition of human FLT3 (unknown origin) using poly(Glu,Tyr) as substrate incubated for 2 hrs in presence of ATP by luminescence method.

Data set [6] addresses GABA-A receptor; anion channel. In words: Binding affinity to GABAA receptor (unknown origin) assessed as inhibition constant. In kind it is protein-complex assay, Homo sapiens.
Data set [7] has as its target Prostaglandin E2 receptor EP2 subtype (Homo sapiens, UniProt P43116). In words: Agonist activity at human EP2 receptor expressed in HEK293 cells. Type of data set: functional, cell-based.
Data set [8] addresses Lanosterol 14-alpha demethylase (Candida albicans (strain SC5314 / ATCC MYA-2876) (Yeast), UniProt P10613). In words: Binding affinity to Candida albicans SC5314 CYP51 assessed as dissociation constant.

Chain of Lanosterol 14-alpha demethylase (P10613 whole entry): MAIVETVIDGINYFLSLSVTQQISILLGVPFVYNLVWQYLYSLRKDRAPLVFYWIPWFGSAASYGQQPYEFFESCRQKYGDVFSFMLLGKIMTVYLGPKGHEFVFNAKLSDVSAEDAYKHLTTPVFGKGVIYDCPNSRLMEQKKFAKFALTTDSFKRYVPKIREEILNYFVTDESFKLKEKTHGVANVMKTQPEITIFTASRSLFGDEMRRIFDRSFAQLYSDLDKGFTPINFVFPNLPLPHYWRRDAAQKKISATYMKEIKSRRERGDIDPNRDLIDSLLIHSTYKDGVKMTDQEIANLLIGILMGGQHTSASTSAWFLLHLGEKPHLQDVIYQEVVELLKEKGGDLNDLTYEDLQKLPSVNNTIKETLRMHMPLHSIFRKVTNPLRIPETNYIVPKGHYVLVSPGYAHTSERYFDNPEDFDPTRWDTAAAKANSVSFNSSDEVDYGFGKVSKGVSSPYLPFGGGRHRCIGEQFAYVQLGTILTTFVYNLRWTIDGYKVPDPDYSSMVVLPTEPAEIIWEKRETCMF
Chain of Prostaglandin E2 receptor EP2 subtype (P43116 whole entry): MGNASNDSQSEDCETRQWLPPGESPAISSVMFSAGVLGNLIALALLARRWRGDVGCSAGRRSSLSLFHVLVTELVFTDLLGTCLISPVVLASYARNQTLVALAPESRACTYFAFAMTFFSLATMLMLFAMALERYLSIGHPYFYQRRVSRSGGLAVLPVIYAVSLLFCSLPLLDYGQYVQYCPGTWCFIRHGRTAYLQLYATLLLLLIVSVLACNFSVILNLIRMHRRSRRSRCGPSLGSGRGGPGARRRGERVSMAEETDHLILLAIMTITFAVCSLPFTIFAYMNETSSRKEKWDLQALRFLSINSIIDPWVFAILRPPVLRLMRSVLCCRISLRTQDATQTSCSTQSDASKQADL

As to `Cc1[nH]c2ccccc2c1CC(=O)N[C@@H](Cc1ccccc1)C(=O)N(C)c1ccccc1`, the half-life in data set [1] turned out to be 3 min. `CC(C)n1c(=O)cc(N[C@@H](C)c2ccccc2)[nH]c1=O` came in with an EC50 in data set [2] of 711 nM. In turn, `CC(C)(C#Cc1ccc(-c2ccc(Cl)c3c(NS(C)(=O)=O)nn(CC(F)(F)F)c23)c([C@H](Cc2cc(F)cc(F)c2)NC(=O)Cn2nc(C(F)(F)F)c3c2C(F)(F)[C@@H]2C[C@H]32)n1)S(C)(=O)=O` registered a concentration giving a half-maximal response (EC50) in data set [3] of 0.05 nM. As to `Cn1nc(N)c2cccc(-c3cccnc3[C@H](Cc3cc(F)cc(F)c3)NC(=O)Cn3nc(C(F)(F)F)c4c3C(F)(F)[C@@H]3C[C@H]43)c21`, in data set [3], the concentration giving a half-maximal response (EC50) was determined as 19 nM.

`NC(=O)c1cccc(-c2cccnc2[C@H](Cc2cc(F)cc(F)c2)NC(=O)Cn2nc(C(F)(F)F)c3c2C(F)(F)[C@@H]2C[C@H]32)c1` gave an EC50 in data set [3] of 167 nM. `NC(=O)c1cccc(-c2cccnc2[C@H](Cc2cc(F)cc(F)c2)NC(=O)Cc2c[nH]c3ccc(O)cc23)c1` displayed an EC50 in data set [3] of 150 nM. The same measure, in the same setting: with `Cn1nc(NS(C)(=O)=O)c2cccc(-c3cccnc3[C@H](Cc3cc(F)cc(F)c3)NC(=O)Cn3nc(C(F)(F)F)c4c3C(F)(F)[C@@H]3C[C@H]43)c21` the figure was 12 nM. `COc1cc(-c2ccnc(Nc3cccc(N(C)C)c3)n2)ccc1O`: the results for the IC50 in data set [4] and in data set [5] were 23 nM and 22 nM, respectively.

With `Cn1nc(NS(C)(=O)=O)c2c(Cl)ccc(-c3ccc(C#CC(C)(C)S(C)(=O)=O)nc3[C@H](Cc3cc(F)cc(F)c3)NC(=O)Cn3nc(C(F)(F)F)c4c3C(F)(F)[C@@H]3C[C@H]43)c21`, in data set [3], the midpoint of the response, the EC50, lay at 0.2 nM. On the same count and under the same terms, the same measure for `COc1ccc(N(C)C(=O)[C@H](Cc2ccccc2)NC(=O)Cc2c[nH]c3ccc(O)cc23)cc1`: 52 nM. As for `CC(=O)[C@H]1CC[C@H]2[C@@H]3CC[C@H]4C[C@](C)(O)CC[C@]4(C)[C@H]3CC[C@]12C` [GANAXOLONE], the Ki in data set [6] turned out to be 790 nM.

Turning to `CC(C)OC(=O)CNc1cccc(CN(Cc2ccc(-n3cccn3)cc2)S(=O)(=O)c2cccnc2)n1` [OMIDENEPAG ISOPROPYL], the EC50 in data set [7] is 1.1 nM. `O[C@@](Cn1cnnn1)(c1ccc(F)cc1F)C(F)(F)c1ccc(-c2ccc(OCC(F)(F)F)cc2)cn1` [OTESECONAZOLE]: the equilibrium dissociation constant (Kd) in data set [8] was ≤ 39 nM.
